Source: ChEMBL document CHEMBL1201862, “PubChem BioAssay data set” (2004)
“And” between values parts separate entries of the source, which are not always exact repeats. Equal values may be shown once.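 Assay format: 96-well plates, 48-hour exposure. At the GI50, growth is halved.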 The source made the active and inactive calls. Rule as the data show it: active = GI50 up to about 1.1 µM and inactive = higher.

Key:
Assay in all cases: inhibition of tumour cell growth, NCI panel, 48 h
UO-31 = system: UO-31
SF-539 = system: SF-539
K562 = system: K562
MDA-N = system: MDA-N
HL-60 = system: HL-60
A549 = system: A549
SN12C = system: SN12C
M14 = system: M14
SW-620 = system: SW-620
HT-29 = system: HT-29
HCT-116 = system: HCT-116
TK-10 = system: TK-10
MCF7 = system: MCF7
T47D = system: T47D
786-0 = system: 786-0
SK-MEL-2 = system: SK-MEL-2
CCRF-CEM = system: CCRF-CEM
COLO 205 = system: COLO 205
Malme-3M = system: Malme-3M
SR = system: SR

Row | SMILES | GI50 (UO-31) | GI50 (SF-539) | GI50 (K562) | GI50 (MDA-N) | GI50 (HL-60) | GI50 (A549) | GI50 (SN12C) | GI50 (M14) | GI50 (SW-620) | GI50 (HT-29) | GI50 (HCT-116) | GI50 (TK-10) | GI50 (MCF7) | GI50 (T47D) | GI50 (786-0) | GI50 (SK-MEL-2) | GI50 (CCRF-CEM) | GI50 (COLO 205) | GI50 (Malme-3M) | GI50 (SR)
1 | CC1(C)[C@@H]2C[C@H]1[C@@H](Cc1cccc(C[C@H]3c4cc(-c5ccccn5)ncc4[C@H]4C[C@@H]3C4(C)C)c1)c1cc(-c3ccccn3)ncc12 | 1.22 µM (inactive) | 4 µM (inactive) | 1.19 µM (inactive) | 6.22 µM (inactive) | 1.29 µM (inactive) | 2.76 µM (inactive) | 5.68 µM (inactive) | 2.76 µM (inactive) | 8.45 µM (inactive) | 3.17 µM (inactive) | 1.09 µM (active) | > 39.5 µM (inactive) | 4.92 µM (inactive) | 2.44 µM (inactive) | 2.1 µM (inactive) | > 100 µM (inactive) | 1.11 µM (active) | 2.93 µM (inactive) | – | –
2 | CC(C)C(C)C(O)C(O)C(C)C1CCC2C3COC(=O)C4CC(O)C(O)CC4(C)C3CCC12C (configuration not stated) | 58.1 µM (inactive) | > 100 µM (inactive) | 39 µM (inactive) | 56 µM (inactive) | > 10 µM (inactive) | 48.9 µM (inactive) | 33.7 µM (inactive) | > 100 µM (inactive) | > 100 µM (inactive) | 35.9 µM (inactive) | > 100 µM (inactive) | > 100 µM (inactive) | 56.4 µM (inactive) | 40.9 µM (inactive) | > 100 µM (inactive) | > 100 µM (inactive) | 22.8 µM (inactive) | 94 µM (inactive) | > 100 µM (inactive) | –
3 | COc1ccc(CN=C(N)N)c2ccccc12 | 23.5 µM (inactive) | 19.2 µM (inactive) | – | 38.5 µM (inactive) | 23.8 µM (inactive) | 43.1 µM (inactive) | 14.9 µM (inactive) | 37.1 µM (inactive) | 41.2 µM (inactive) | 15.8 µM (inactive) | 24.6 µM (inactive) | 22.2 µM (inactive) | 36.7 µM (inactive) | 31.9 µM (inactive) | 12.7 µM (inactive) | 35.1 µM (inactive) | 38.3 µM (inactive) | 15.8 µM (inactive) | 17.1 µM (inactive) | –
4 | O=C1OS2(OC(=O)c3cccc4cccc2c34)c2ccccc21 (configuration not stated) | > 100 µM (inactive) | > 100 µM (inactive) | > 100 µM (inactive) | > 100 µM (inactive) | > 100 µM (inactive) | > 100 µM (inactive) | > 100 µM (inactive) | > 100 µM (inactive) | > 100 µM (inactive) | > 100 µM (inactive) | > 100 µM (inactive) | > 100 µM (inactive) | > 100 µM (inactive) | > 100 µM (inactive) | > 100 µM (inactive) | > 100 µM (inactive) | > 100 µM (inactive) | > 100 µM (inactive) | > 100 µM (inactive) | –
5 | COc1cc(-c2oc3c(OC)c(OC)cc(O)c3c(=O)c2OC)ccc1O [TERNATIN] | – | 6.18 µM (inactive) and 7.5 µM (inactive) | 27.5 µM (inactive) | 15.2 µM (inactive) | 1.24 µM (inactive) | 14.9 µM (inactive) | – | – | – | > 100 µM (inactive) | 5.04 µM (inactive) and 8.69 µM (inactive) | 4.84 µM (inactive) and 8.69 µM (inactive) | 21.1 µM (inactive) | 8.32 µM (inactive) | 6.32 µM (inactive) and 12 µM (inactive) | – | 3.38 µM (inactive) and 2.42 µM (inactive) | > 100 µM (inactive) | 13.1 µM (inactive) and 9.59 µM (inactive) | –
6 | O=C(O)C1CCCN1Cc1cc2ccccc2c2ccccc12 (configuration not stated) | > 100 µM (inactive) | > 100 µM (inactive) | 40.1 µM (inactive) | > 100 µM (inactive) | > 100 µM (inactive) | > 100 µM (inactive) | > 100 µM (inactive) | > 100 µM (inactive) | > 100 µM (inactive) | > 100 µM (inactive) | > 100 µM (inactive) | > 100 µM (inactive) | > 100 µM (inactive) | > 100 µM (inactive) | > 100 µM (inactive) | > 100 µM (inactive) | – | > 100 µM (inactive) | > 100 µM (inactive) | –
7 | Oc1ccc2c(c1)OCC1c3ccccc3OC21 (configuration not stated) | 52.8 µM (inactive) | > 100 µM (inactive) | 41.2 µM (inactive) | 35.6 µM (inactive) | 28.8 µM (inactive) | – | 51.6 µM (inactive) | 74 µM (inactive) | 63.5 µM (inactive) | 37.9 µM (inactive) | 91.2 µM (inactive) | 87.7 µM (inactive) | 86.5 µM (inactive) | > 100 µM (inactive) | > 100 µM (inactive) | 60.5 µM (inactive) | 30.3 µM (inactive) | > 100 µM (inactive) | – | –
8 | Cc1ccc(S(=O)(=O)NC(=O)NNc2ccc(F)cc2)cc1 | > 31.6 µM (inactive) | > 100 µM (inactive) | – | > 100 µM (inactive) | > 100 µM (inactive) | > 100 µM (inactive) | > 100 µM (inactive) | > 100 µM (inactive) | > 100 µM (inactive) | > 100 µM (inactive) | > 100 µM (inactive) | > 100 µM (inactive) | > 100 µM (inactive) | > 100 µM (inactive) | > 100 µM (inactive) | > 100 µM (inactive) | > 100 µM (inactive) | > 100 µM (inactive) | > 100 µM (inactive) | –
9 | CC(C)c1cccc(C(C)C)c1NC(=O)/C(CC(=O)CC(c1ccccc1)c1c(O)c2ccccc2oc1=O)=N/O (configuration not stated) | > 95.9 µM (inactive) | > 100 µM (inactive) | > 100 µM (inactive) | > 100 µM (inactive) | > 100 µM (inactive) | > 100 µM (inactive) | > 100 µM (inactive) | > 100 µM (inactive) | > 100 µM (inactive) | > 100 µM (inactive) | > 100 µM (inactive) | > 100 µM (inactive) | > 100 µM (inactive) | > 100 µM (inactive) | > 100 µM (inactive) | > 100 µM (inactive) | > 100 µM (inactive) | > 100 µM (inactive) | 95.9 µM (inactive) | –
10 | C1CSCCSCCS1 | > 100 µM (inactive) | > 100 µM (inactive) | > 100 µM (inactive) | > 100 µM (inactive) | > 100 µM (inactive) | > 100 µM (inactive) | > 100 µM (inactive) | > 100 µM (inactive) | > 100 µM (inactive) | > 100 µM (inactive) | > 100 µM (inactive) | > 100 µM (inactive) | > 100 µM (inactive) | > 100 µM (inactive) | > 100 µM (inactive) | – | > 100 µM (inactive) | > 100 µM (inactive) | – | > 100 µM (inactive)
11 | CCOC(=O)CCCNC(=O)CCCCC(=O)N(C)C | > 100 µM (inactive) | > 100 µM (inactive) | > 100 µM (inactive) | > 100 µM (inactive) | > 100 µM (inactive) | > 100 µM (inactive) | > 100 µM (inactive) | > 100 µM (inactive) | > 100 µM (inactive) | > 100 µM (inactive) | > 100 µM (inactive) | > 100 µM (inactive) | > 100 µM (inactive) | > 100 µM (inactive) | > 100 µM (inactive) | > 100 µM (inactive) | > 100 µM (inactive) | > 100 µM (inactive) | > 100 µM (inactive) | –
